How the values were obtained:
[1] = tested on: CD34+-derived ECs; assay: Immunostaining of claudin-1 in treated EC monocultures; format: cell-based, human; settings: EC monoculture, day 6; BIO 0.5 µM, Wnt3a 6.25 ng/mL
Procedure: (§1) For Wnt signaling experiments, mono- and co-culture systems were used. In monoculture, 8×10^4 CD34^+-ECs were seeded on the Matrigel-coated transwell insert. The cells were then incubated with agonists/ligands (6.25 ng/mL–100 ng/mL Wnt3A (R&D Systems), 6.25 ng/mL–250 ng/mL Wnt7A (Peprotech) or 0.5–5 µM BIO (Sigma)) for 1 or 5 days. Co-cultures were prepared as described before. The CD34^+-derived ECs co-cultured with pericytes for 1 or 6 days were used in the signaling experiments. Agonist (0.5–5 µM BIO) was added into the basolateral compartment while antagonist (0.1–3 µM XAV939 (Selleckbio)) was added in the apical part of the transwell system.
Immunostaining. Cells were fixed in cold methanol/acetone (50%/50% v/v) for 1 min or 4% (v/v) paraformaldehyde (Electron Microscopy Sciences, EMS) for 10 min at room temperature (see Table S1). After permeabilizing the cells with 0.1% (v/v) Triton X-100 (Sigma-Aldrich) for 5-10 min, whenever required, and blocking for 30 min with 1% (w/v) bovine serum albumin (BSA) solution (Sigma-Aldrich) or normal goat serum (10% (v/v), Sigma-Aldrich), the cells were incubated for 1 h with the primary monoclonal antibodies listed in Table S1, at room temperature. […] Cells were examined with a Zeiss LSM 50 confocal microscope or with a Leica DMR fluorescence microscope (Leica Microsystems). […]

[2] = tested on: monocultures of CD34+-derived ECs; assay: Wnt signaling experiments: paracellular permeability of treated EC monocultures; format: cell-based, human; settings: Wnt3a 6.25 ng/mL
Procedure: (§2) Prior to the experiments, HEPES-buffered Ringer’s solution (in some cases EBM-2 medium) was added to empty wells of a 12-well plate (Costar). Filter inserts, containing confluent monolayers of CD34^+-ECs, were subsequently placed in the 12-well plate, filled with compound solution containing the fluorescent integrity marker Lucifer Yellow (20 µM; Life Technologies), and then placed on an orbital shaker. After 1 h, filter inserts were withdrawn from the receiver compartment. Aliquots from the donor solution were taken at the beginning and at the end of the experiments and the fluorescence was quantified. At least three inserts with cells and three without cells were tested in each permeability measurement. Fluorescence detection was carried out on a Synergy H1 multiplates reader (Biotek) using the following excitation/emission wavelength (nm) settings: 432/538; 490/516; 542/570 for Lucifer yellow, Fluorescein Na and Cy3-Human Serum Albumin and Human IgG respectively.
To obtain a concentration-independent transport parameter, the clearance principle was used. The increment in cleared volume was calculated by dividing the amount of compound in the receiver compartment by the drug concentration in the donor compartment. The volume cleared was plotted versus time and the slope estimated by linear regression analysis. The slope of the clearance curve with inserts alone and inserts with cells is equal to PSf and PSt, respectively, where PS (microliters/minute) is the permeability surface area (square centimeter) product. The PS-value for endothelial monolayer (PSe) was calculated. To generate the endothelial permeability coefficient, Pe (cm/min), the PSe value was divided by the surface area of the filter (A in cm^2) insert using the following equation: Pe = [1/PSt−1/PSf]^−1/A. To assess possible adsorption to plastics and non-specific binding to cells, the mass balance (%) was calculated from the amount of compound recovered in both compartments at the end of the experiment divided by the total amount added in the donor compartment at time zero. For Pe determination, mass balance value should be between 80% and 120%.
as §1

[3] = tested on: β-catenin; assay: Wnt signaling experiments: β-catenin expression in monocultures of ECs; format: cell-based, human; settings: EC monoculture; for expression of active β-catenin: after 1 day; for expression and nuclear localization of total β-catenin: day 3, BIO 0.5 µM, Wnt3a 6.25 ng/mL
Procedure: as §1, with “The cells were then incubated with agonists/ligands (6.25 ng/mL–100 ng/mL Wnt3A (R&D Systems), 6.25 ng/mL–250 ng/mL Wnt7A (Peprotech) or 0.5–5 µM BIO (Sigma)) for 1 or 5 days.” left out
Immunostaining. Cells were fixed in cold methanol/acetone (50%/50% v/v) for 1 min or 4% (v/v) paraformaldehyde (Electron Microscopy Sciences, EMS) for 10 min at room temperature (see Table S1). After permeabilizing the cells with 0.1% (v/v) Triton X-100 (Sigma-Aldrich) for 5-10 min, whenever required, and blocking for 30 min with 1% (w/v) bovine serum albumin (BSA) solution (Sigma-Aldrich) or normal goat serum (10% (v/v), Sigma-Aldrich), the cells were incubated for 1 h with the primary monoclonal antibodies listed in Table S1, at room temperature. After washing, the cells were stained with a secondary antibody for 1 h in the dark at room temperature (Table S1). In each immunofluorescence experiment, an isotype-matched IgG control was used. The nuclei of cells was stained with 4',6-diamidino-2-phenylindole (DAPI; Sigma-Aldrich) or Hoescht reagent (ICN Pharmaceuticals). Cells were mounted using Mowiol (Sigma-Aldrich) containing an anti-fading agent (Dabco, Sigma-Aldrich) or cell-mounting medium from DAKO. Cells were examined with a Zeiss LSM 50 confocal microscope or with a Leica DMR fluorescence microscope (Leica Microsystems). In the last case, images were collected using a Cool SNAP RS Photometrics camera (Leica Microsystems) and were processed using Adobe Photoshop software 5.5 (Adobe systems).
FACS analysis. Cells were dissociated from the culture plate by exposure to Cell Dissociation Buffer (Life Technologies) for 3-5 min and gentle pipetting, centrifuged and finally resuspended in PBS supplemented with 5% (v/v) FBS. The single cell suspensions were aliquoted (2.0×10^5 cells per condition), fixed with 4% (v/v) paraformaldehyde (PFA; EMS) or ice-cold absolute methanol and permeabilized with 0.1% (w/v) Triton X-100 (Fluka) when necessary. The cells were stained with antigen-specific primary antibodies (dilution ratios and list of antibodies are given on Table S1). After the incubation with primary antibodies, cells were incubated with phycoerytrin (PE)-conjugated anti-rabbit (R&D Systems), and PE-conjugated anti-mouse (Santa Cruz) secondary antibodies. FACS Calibur (BD Biosciences) and BD Cell Quest Software (BD Biosciences) were used for the acquisition and analysis of the data.

[4] = tested on: CD34+-derived ECs; assay: qRT-PCR of claudin-1 and LEF1 in ECs treated with Wnt ligands; format: cell-based, human; settings: EC monoculture
Procedure: as §1
Reverse transcription and quantitative real time polymerase chain reaction (qRT-PCR) analysis. CD34^+-ECs cultured in different conditions were homogenized in Trizol reagent (Life Technologies) and total RNA was extracted using the RNeasy Mini Kit (Qiagen), according to manufacturer’s instructions. In all cases, cDNA was prepared from 1 μg total RNA using Taqman Reverse transcription reagents (Applied Biosystems). Non-quantitative RT-PCR was performed using the conditions described in [4] and DNA migrated on a agarose gel electrophoresis (1.5%) with a low range DNA molecular weight marker (Euromedex) to visualize the sizes. Gels were then stained with gel red nucleic acid gel stain (Interchim) and visualized on a UV light transilluminator (Bio-Rad). Quantitative real time PCR (qRT-PCR) was performed using Power SYBR Green PCR Master Mix (Applied Biosystems) and the detection was carried out in a 7500 Fast Real-Time PCR System (Applied Biosystems). Quantification of target genes was performed relatively to the reference GAPDH gene: relative expression = 2^[-(Ctsample^-CtGADPH^)]. Primer sequences are given as supporting information (Table S2).

[5] = target: P-gp (Homo sapiens, UniProt P08183); settings: [3H]-vincristine sulphate 66.5 nM, 2 h; 25 μM verapamil or 0.5 μM elacridar
[6] = tested on: monolayers of CD34+-derived ECs (monoculture); assay: Endothelial permeability (Pe) to Lucifer yellow, ECs in monoculture; format: in vitro ADME, human; settings: CD34+-derived ECs grown to confluence on filters for 6 days
Procedure: as §2
(§3) To obtain a concentration-independent transport parameter, the clearance principle was used. The increment in cleared volume was calculated by dividing the amount of compound in the receiver compartment by the drug concentration in the donor compartment. The volume cleared was plotted versus time and the slope estimated by linear regression analysis. […] The PS-value for endothelial monolayer (PSe) was calculated. […]

[7] = tested on: brain-like endothelial cells (BLECs); assay: Endothelial permeability (Pe) to Lucifer yellow, ECs co-cultured with pericytes (BLECs); format: in vitro ADME, human; settings: day 6, n = 60
Procedure: For co-culture experiments, pericytes were initially seeded on 60-mm gelatin-coated petri dishes and cultured in Dulbecco’s Modified Eagle’s Medium (DMEM) (Life Technologies) supplemented with 20% (v/v) FBS (Life Technologies), 2 mM L-glutamine, 50 µg/mL gentamycin and 1 ng/mL bFGF. The cells reached confluency after 2 days. 45×10^3 cells were seeded into each well of 12-well plates (Costar). […]
Prior to the experiments, HEPES-buffered Ringer’s solution (in some cases EBM-2 medium) was added to empty wells of a 12-well plate (Costar). […] Aliquots from the donor solution were taken at the beginning and at the end of the experiments and the fluorescence was quantified. […] Fluorescence detection was carried out on a Synergy H1 multiplates reader (Biotek) using the following excitation/emission wavelength (nm) settings: 432/538; 490/516; 542/570 for Lucifer yellow, Fluorescein Na and Cy3-Human Serum Albumin and Human IgG respectively.
as §3, with “compartment.” for “compartment. The volume cleared was plotted versus time and the slope estimated by linear regression analysis.”

[8] = tested on: cord blood-derived ECs co-cultured with astrocytes; set-up: method as in PMID 24392113; settings: BBB model of cord blood-derived ECs co-cultured with astrocytes; cited from earlier work
[9] = tested on: BLECs; assay: Expression of adhesion molecules by BLECs (FACS); format: cell-based, human; settings: 10 ng/mL for 24 h
Procedure: Adhesion molecule expression by BLECs was determined by FACS. For these experiments, CD34^+-ECs were cultured with pericytes for 6 days. After co-culture, transwells with BLEC monolayers were transferred to a new 12-well plate. BLECs were treated with 10 ng/mL TNF-α (Peprotech) for 24 h. Untreated BLECs were used as control. Cells were dissociated from the culture plate by exposure to Cell Dissociation Buffer (Life Technologies) for 3–5 min and gentle pipetting, centrifuged and finally resuspended in PBS supplemented with 5% (v/v) FBS. The single cell suspensions were aliquoted (2.0×10^5 cells per condition) and incubated with primary antibodies against human CD40, ICAM1, ICAM2, VCAM1, PECAM1 (Table S1). After the incubation with primary antibodies, cells were incubated with phycoerytrin (PE)-conjugated anti-rabbit (R&D Systems), and PE-conjugated anti-mouse (Santa Cruz) secondary antibodies. FACS Calibur (BD Biosciences) and BD Cell Quest Software (BD Biosciences) were used for the acquisition and analysis of the data.
FACS analysis. Cells were dissociated from the culture plate by exposure to Cell Dissociation Buffer (Life Technologies) for 3-5 min and gentle pipetting, centrifuged and finally resuspended in PBS supplemented with 5% (v/v) FBS. […]

[10] = long-term: 1 day of monoculture + 5 day of treatment, Wnt7a 6.25 ng/mL, BIO 0.5 µM

Chain of P-gp (P08183 whole entry): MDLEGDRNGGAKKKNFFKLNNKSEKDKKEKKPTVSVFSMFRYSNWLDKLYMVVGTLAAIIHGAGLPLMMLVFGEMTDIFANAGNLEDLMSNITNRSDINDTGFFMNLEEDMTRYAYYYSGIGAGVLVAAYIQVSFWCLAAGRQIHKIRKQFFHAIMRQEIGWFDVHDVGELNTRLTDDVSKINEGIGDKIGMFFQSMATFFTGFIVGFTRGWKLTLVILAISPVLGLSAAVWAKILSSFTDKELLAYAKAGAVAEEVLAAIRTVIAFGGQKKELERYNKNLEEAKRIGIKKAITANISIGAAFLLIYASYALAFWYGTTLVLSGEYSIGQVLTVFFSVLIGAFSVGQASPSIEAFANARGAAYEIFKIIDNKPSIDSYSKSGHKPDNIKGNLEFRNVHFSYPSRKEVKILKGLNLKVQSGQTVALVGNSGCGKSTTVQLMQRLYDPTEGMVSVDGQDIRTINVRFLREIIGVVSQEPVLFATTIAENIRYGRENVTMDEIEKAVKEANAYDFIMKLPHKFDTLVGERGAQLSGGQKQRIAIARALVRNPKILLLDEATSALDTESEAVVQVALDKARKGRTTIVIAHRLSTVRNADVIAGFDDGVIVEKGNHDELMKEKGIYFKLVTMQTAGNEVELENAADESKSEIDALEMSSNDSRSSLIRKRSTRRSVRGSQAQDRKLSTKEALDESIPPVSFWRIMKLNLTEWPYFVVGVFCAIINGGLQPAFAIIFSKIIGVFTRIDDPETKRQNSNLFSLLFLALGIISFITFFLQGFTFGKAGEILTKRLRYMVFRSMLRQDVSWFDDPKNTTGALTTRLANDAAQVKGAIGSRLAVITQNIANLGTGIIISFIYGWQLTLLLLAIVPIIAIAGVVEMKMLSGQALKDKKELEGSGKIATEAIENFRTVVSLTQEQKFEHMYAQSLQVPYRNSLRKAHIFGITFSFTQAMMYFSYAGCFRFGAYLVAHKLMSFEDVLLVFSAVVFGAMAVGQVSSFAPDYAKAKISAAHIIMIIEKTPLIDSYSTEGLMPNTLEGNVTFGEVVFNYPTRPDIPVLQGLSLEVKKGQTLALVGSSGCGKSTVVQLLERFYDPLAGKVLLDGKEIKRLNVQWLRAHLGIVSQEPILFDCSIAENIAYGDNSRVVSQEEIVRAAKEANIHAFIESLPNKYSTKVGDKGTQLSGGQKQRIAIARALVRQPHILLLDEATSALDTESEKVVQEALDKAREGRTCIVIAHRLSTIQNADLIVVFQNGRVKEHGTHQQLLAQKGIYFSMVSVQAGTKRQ

| Molecule | localization of claudin-1 [1] | paracellular permeability to Lucifer Yellow versus untreated cells [2, 10] | expression of active β-catenin [3] | expression and nuclear localization of total β-catenin [3] | LEF1 gene expression [4] | claudin-1 gene expression [4] | other results |
| --- | --- | --- | --- | --- | --- | --- | --- |
| O=C1Nc2cc(Br)ccc2/C1=C1/Nc2ccccc2/C1=N\O [BIO] | localization of claudin-1 at the cell-cell contacts | only observed after 5-day treatment | increasing | increase | up-regulation | up-regulation | – |
| COc1cc2c(cc1OC)CN(CCc1ccc(NC(=O)c3cccc4c(=O)c5cccc(OC)c5[nH]c34)cc1)CC2 [elacridar] | – | – | – | – | – | – | accumulation of vincristine in BLECs on inhibition of P-gp [5]: significant increase |
| Lucifer yellow | – | – | – | – | – | – | permeability to Lucifer yellow [6]: 33.3 ×10⁻⁶ cm/s; permeability to Lucifer yellow [7]: 0.61±0.15×10^−3 cm/min; Pe to Lucifer yellow [8]: 20.5 ×10⁻⁶ cm/s |
| TNF-α | – | – | – | – | – | – | expression of ICAM-1, ICAM-2, CD40 and VCAM-1 [9]: up-regulation |
| Wnt7a: human recombinant protein Wnt7a, Wnt ligand (protein, UniProt O00755 32-349, looked up) Protein Wnt-7a: LGASIICNKIPGLAPRQRAICQSRPDAIIVIGEGSQMGLDECQFQFRNGRWNCSALGERTVFGKELKVGSREAAFTYAIIAAGVAHAITAACTQGNLSDCGCDKEKQGQYHRDEGWKWGGCSADIRYGIGFAKVFVDAREIKQNARTLMNLHNNEAGRKILEENMKLECKCHGVSGSCTTKTCWTTLPQFRELGYVLKDKYNEAVHVEPVRASRNKRPTFLKIKKPLSYRKPMDTDLVYIEKSPNYCEEDPVTGSVGTQGRACNKTAPQASGCDLMCCGRGYNTHQYARVWQCNCKFHWCCYVKCNTCSERTEMYTCK | – | only observed after 5-day treatment | – | – | – | – | – |
| Wnt3a: human recombinant protein Wnt3a, Wnt ligand (protein, UniProt P56704 19-352, looked up) Protein Wnt-3a: SYPIWWSLAVGPQYSSLGSQPILCASIPGLVPKQLRFCRNYVEIMPSVAEGIKIGIQECQHQFRGRRWNCTTVHDSLAIFGPVLDKATRESAFVHAIASAGVAFAVTRSCAEGTAAICGCSSRHQGSPGKGWKWGGCSEDIEFGGMVSREFADARENRPDARSAMNRHNNEAGRQAIASHMHLKCKCHGLSGSCEVKTCWWSQPDFRAIGDFLKDKYDSASEMVVEKHRESRGWVETLRPRYTYFKVPTERDLVYYEASPNFCEPNPETGSFGTRDRTCNVSSHGIDGCDLLCCGRGHNARAERRREKCRCVFHWCCYVSCQECTRVYDVHTCK | localization of claudin-1 at the cell-cell contacts | statistical lower | increasing | increase | up-regulation | up-regulation | paracellular permeability to Lucifer Yellow versus untreated cells ([2]; short-term: 5 days of monoculture + 1 day of treatment, P<0.01, n = 4): statistical lower |
